According to patent US20220315624A1, “THIOSTREPTON ANALOGS AND METHODS OF MAKING AND USING SAME” (YALE UNIVERSITY, priority 2019, published 2022):
In brackets after ≈: the same amount, converted by molar mass. Read-outs that look alike come from different tables or passages of the source.

Legend:
S. aureus MMX 8088 MRSA = test: MIC broth microdilution; assay type: cell-based; conditions: Staphylococcus aureus
Protocol: (§1) Twenty-four test agents were shipped to Micromyx and stored at −20° C. until assayed. The compounds were dissolved in 100% DMSO at 6.46 mg/mL prior to testing. Comparator drugs were supplied by Micromyx and were handled as described below:
(§2) The test organisms for the assay were recent clinical isolates or reference strains acquired from the American Type Culture Collection (ATCC; Manassas, Va.). Upon receipt, the isolates were streaked onto Trypticase Soy Agar II+5% sheep blood (TSAB). Colonies were harvested from the plates and a cell suspension was prepared in Trypticase Soy Broth containing cryoprotectant. Aliquots were then frozen at −80° C. Prior to the assay, the frozen seeds of all bacterial isolates to be tested were thawed and streaked for isolation onto TSAB (BD/BBL, Sparks, Md.; Lot No. 9011894), and were incubated overnight at 35° C.
(§3) The test medium for all isolates was cation-adjusted Mueller Hinton broth (CAMHB; BD/BBL; Lot No. 8190586). CAMHB (Cation Adjusted Mueller Hinton Broth) was supplemented with 3% (v/v) lysed horse blood (LHB; Hemostat, Dixon, Calif.; Lot No. 474990) for the testing of streptococci.
(§4) MIC values were determined using a broth microdilution method as recommended by CLSI. Automated liquid handlers (Multidrop 384, Labsystems, Helsinki, Finland; Biomek 2000 and Biomek F/X, Beckman Coulter, Fullerton Calif.) were used to conduct serial dilutions and make liquid transfers.
(§5) The wells of standard 96-well microdilution plates (Costar 3795, Corning Inc., Corning, N.Y.) were filled with 150 μL of the appropriate diluent in columns 2-12 on the Multidrop 384 (DMSO for the thiostrepton analogs, deionized H2O for vancomycin and ceftazidime). These plates were used to prepare the drug “mother plate” which provided the serial drug dilutions for the replicate “daughter plates”. The compounds (300 μL) were dispensed at 101× the highest concentration to be tested into the appropriate row of the “mother plate”. The Biomek 2000 was used to transfer 150 μL of each stock solution from the wells in Column 1 of the mother plate to make ten subsequent 2-fold serial dilutions. The wells of Column 12 contained no drug and served as the organism growth control wells. The daughter plates were loaded with 190 μL of test medium using the Multidrop 384.
(§6) The daughter plates were prepared on the Biomek F/X instrument which transferred […] of drug solution from each well of the mother plate to each corresponding well of each daughter plate in a single step. The wells of the daughter plates ultimately contained 190 μL of media, 2 μL of drug solution, and 10 μL of inoculum prepared as described below. The final concentration of DMSO (if used as a solvent) in the test well was 1%.
(§7) A standardized inoculum of each organism was prepared per CLSI methods. A suspension of organisms from a fresh plate was prepared in CAMHB to equal the turbidity of a 0.5 McFarland standard. The suspensions were diluted 1:20 in CAMHB, or in the case of streptococci CAMHB with LHB. The inoculum for each organism was dispensed into sterile reservoirs divided by length (Beckman Coulter), and the Biomek 2000 was used to inoculate the plates. Daughter plates were placed on the Biomek 2000 work surface reversed so that inoculation took place from low to high drug concentration. The Biomek 2000 delivered 10 μL of standardized inoculum into each well. These dilutions yielded a final cell concentration in the daughter plates of approximately 5.0×10^5 CFU/mL.
(§8) Plates were stacked 3 high, covered with a lid on the top plate, placed in plastic bags, and incubated at 35° C. for 16-20 hr for all organisms except streptococci which were incubated for 20-24 hr. Following incubation, the microplates were removed from the incubator and viewed from the bottom using a plate viewer. The MIC was read and recorded as the lowest concentration of drug that inhibited visible growth of the organism. […]

[1] = test system: S. aureus ATCC 29213 MSSA; test: MIC broth microdilution; assay type: cell-based; conditions: Staphylococcus aureus
Protocol: as §1, §2, §3, §4, §5, §6, §7, §8

[2] = test system: E. faecalis ATCC 29212 VSE; test: MIC broth microdilution; assay type: cell-based; conditions: Enterococcus faecalis, ATCC29212
Protocol: as §1, §2, §3, §4, §5, §6, §7, §8

[3] = test system: S. pneumoniae ATCC 49619 PISP; test: MIC broth microdilution; assay type: cell-based; conditions: Streptococcus pneumoniae, ATCC49619, 20 h
Protocol: as §1, §2, §3, §4, §5, §6, §7, §8

E. faecium MMX 708 VSE = test: MIC broth microdilution; assay type: cell-based; conditions: Enterococcus faecium, MMX708VSE
Protocol: as §1, §2, §3, §4, §5, §6, §7, §8

S. pyogenes ATCC 19615 = test: MIC broth microdilution; assay type: cell-based; conditions: Streptococcus pyogenes, ATCC19615, 20 h
Protocol: as §1, §2, §3, §4, §5, §6, §7, §8

E. coli ATCC 25922 = test: MIC broth microdilution; assay type: cell-based; conditions: Escherichia coli, ATCC25922
Protocol: as §1, §2, §3, §4, §5, §6, §7, §8

E. faecium MMX 485 VRE = test: MIC broth microdilution; assay type: cell-based; conditions: Enterococcus faecium
Protocol: as §1, §2, §3, §4, §5, §6, §7, §8

E. faecalis MMX 486 VRE = test: MIC broth microdilution; assay type: cell-based; conditions: Enterococcus faecalis
Protocol: as §1, §2, §3, §4, §5, §6, §7, §8

[4] = Aqueous solubility analysis in MOPS buffer; assay type: physicochemical; conditions: thermodynamic from solid, after 24 hours in 10 mM aqueous MOPS buffer, pH 7.2
Protocol: A 2 dram vial was loaded with ˜0.5 mg of a thiostrepton derivative and suspended in ˜4 mL of aqueous 10 mM MOPS buffer (pKa 7.2). The suspension was stirred vigorously for 24 h to ensure equilibration, then filtered through a […] centrifuge filtration unit. A 3.0 mL aliquot was concentrated, and the dried residue was diluted with 0.30 mL of 1:1 1,4-dioxane/H2O (10× original concentration necessitated by detection limits). The total UV absorbance (200-300 nm) was measured in triplicate by UPLC runs with a photodiode array detector. A calibration curve for each compound was created using data points from 3 trials each of concentrations in 1:1 1,4-dioxane/H2O ranging from […]. These concentrations were plotted against their respective average absorbances. The experimental concentration of each compound was calculated by dividing the found μg/mL value by the residue concentration factor of 10 to yield the actual solubility value.

[5] = Un-inoculated solubility control plate (drug precipitation); assay type: physicochemical
[6] = S. aureus MMX 8088 MRSA, CAMHB, read-out: MIC
[7] = S. aureus ATCC 29213 MSSA, CAMHB, read-out: MIC
[8] = E. faecalis ATCC 29212 VSE, CAMHB, read-out: MIC
[9] = S. pneumoniae ATCC 49619 PISP, CAMHB with 3% lysed horse blood, read-out: MIC
[10] = E. faecium MMX 708 VSE, CAMHB, read-out: MIC
[11] = S. pyogenes ATCC 19615, CAMHB with 3% lysed horse blood, read-out: MIC
[12] = E. coli ATCC 25922, CAMHB, read-out: MIC
[13] = E. faecium MMX 485 VRE, CAMHB, read-out: MIC
[14] = E. faecalis MMX 486 VRE, CAMHB, read-out: MIC

Structure (SMILES)	MIC (S. aureus MMX 8088 MRSA; MRSA)	MIC [1]	MIC [2]	MIC [3]	MIC (E. faecium MMX 708 VSE)	MIC (S. pyogenes ATCC 19615)	MIC (E. coli ATCC 25922)	MIC (E. faecium MMX 485 VRE; VRE)	MIC (E. faecalis MMX 486 VRE; VRE)	MIC (S. aureus MMX 8088 MRSA; [6])	MIC [1, 7]	MIC [2, 8]	MIC [3, 9]	MIC (E. faecium MMX 708 VSE; [10])	MIC (S. pyogenes ATCC 19615; [11])	MIC (E. coli ATCC 25922; [12])	MIC (E. faecium MMX 485 VRE; [13])	MIC (E. faecalis MMX 486 VRE; [14])	solubility at 24 h ([4]; aqueous 10 mM MOPS buffer)	further results
C=C(NC(=O)c1csc(C2=N[C@@H]3c4csc(n4)[C@H]4NC(=O)c5csc(n5)[C@H]([C@](C)(O)[C@@H](C)O)NC(=O)C5CSC(=N5)/C(=C/C)NC(=O)[C@H]([C@@H](C)O)NC(=O)c5csc(n5)[C@]3(CC2)NC(=O)[C@H](C)NC(=O)C(=C)NC(=O)[C@H](C)NC(=O)[C@H]([C@@H](C)CC)N[C@@H]2C=Cc3c([C@H](C)O)cc(nc3[C@H]2O)C(=O)O[C@@H]4C)n1)C(=O)NC(=CNC(=O)c1ccc(OC)cc1)C(N)=O [RJS-07]	2 µg/mL (≈ 1.1 µM)	1 µg/mL (≈ 0.551 µM)	2 µg/mL (≈ 1.1 µM)	0.004 µg/mL (≈ 0.0022 µM)	1 µg/mL (≈ 0.551 µM)	0.004 µg/mL (≈ 0.0022 µM)	> 64 µg/mL	1 µg/mL (≈ 0.551 µM)	1 µg/mL (≈ 0.551 µM)											
C=C(NC(=O)c1csc(C2=N[C@@H]3c4csc(n4)[C@H]4NC(=O)c5csc(n5)[C@H]([C@](C)(O)[C@@H](C)O)NC(=O)C5CSC(=N5)/C(=C/C)NC(=O)[C@H]([C@@H](C)O)NC(=O)c5csc(n5)[C@]3(CC2)NC(=O)[C@H](C)NC(=O)C(=C)NC(=O)[C@H](C)NC(=O)[C@H]([C@@H](C)CC)N[C@@H]2C=Cc3c([C@H](C)O)cc(nc3[C@H]2O)C(=O)O[C@@H]4C)n1)C(=O)NC(=CNC(=O)COC)C(N)=O [RJS-06]										1 µg/mL (≈ 0.571 µM)	0.5 µg/mL (≈ 0.285 µM)	1 µg/mL (≈ 0.571 µM)	0.015 µg/mL (≈ 0.00856 µM)	1 µg/mL (≈ 0.571 µM)	0.008 µg/mL (≈ 0.00457 µM)	> 64 µg/mL	0.5 µg/mL (≈ 0.285 µM)	1 µg/mL (≈ 0.571 µM)	28 µg/mL (≈ 16 µM)	
C=C(NC(=O)c1csc(C2=N[C@@H]3c4csc(n4)[C@H]4NC(=O)c5csc(n5)[C@H]([C@](C)(O)[C@@H](C)O)NC(=O)C5CSC(=N5)/C(=C/C)NC(=O)[C@H]([C@@H](C)O)NC(=O)c5csc(n5)[C@]3(CC2)NC(=O)[C@H](C)NC(=O)C(=C)NC(=O)[C@H](C)NC(=O)[C@H]([C@@H](C)CC)N[C@@H]2C=Cc3c([C@H](C)O)cc(nc3[C@H]2O)C(=O)O[C@@H]4C)n1)C(=O)NC(=CNC(=O)c1cccc(/C=N/OC(C)(C)C(=O)O)c1)C(N)=O [RJS-13]										1 µg/mL (≈ 0.523 µM)	1 µg/mL (≈ 0.523 µM)	2 µg/mL (≈ 1.05 µM)	0.015 µg/mL (≈ 0.00784 µM)	1 µg/mL (≈ 0.523 µM)	0.015 µg/mL (≈ 0.00784 µM)	> 64 µg/mL	1 µg/mL (≈ 0.523 µM)	1 µg/mL (≈ 0.523 µM)		
C=C(NC(=O)c1csc(C2=N[C@@H]3c4csc(n4)[C@H]4NC(=O)c5csc(n5)[C@H]([C@](C)(O)[C@@H](C)O)NC(=O)C5CSC(=N5)/C(=C/C)NC(=O)[C@H]([C@@H](C)O)NC(=O)c5csc(n5)[C@]3(CC2)NC(=O)[C@H](C)NC(=O)C(=C)NC(=O)[C@H](C)NC(=O)[C@H]([C@@H](C)CC)N[C@@H]2C=Cc3c([C@H](C)O)cc(nc3[C@H]2O)C(=O)O[C@@H]4C)n1)C(=O)NC(=CNC(=O)c1cccc(C(C)=O)c1)C(N)=O [RJS-05]										2 µg/mL (≈ 1.1 µM)	1 µg/mL (≈ 0.548 µM)	1 µg/mL (≈ 0.548 µM)	0.004 µg/mL (≈ 0.00219 µM)	1 µg/mL (≈ 0.548 µM)	0.004 µg/mL (≈ 0.00219 µM)	> 64 µg/mL	0.5 µg/mL (≈ 0.274 µM)	1 µg/mL (≈ 0.548 µM)	1.1 µg/mL (≈ 0.602 µM)	
C=C(NC(=O)c1csc(C2=N[C@@H]3c4csc(n4)[C@H]4NC(=O)c5csc(n5)[C@H]([C@](C)(O)[C@@H](C)O)NC(=O)C5CSC(=N5)/C(=C/C)NC(=O)[C@H]([C@@H](C)O)NC(=O)c5csc(n5)[C@]3(CC2)NC(=O)[C@H](C)NC(=O)C(=C)NC(=O)[C@H](C)NC(=O)[C@H]([C@@H](C)CC)N[C@@H]2C=Cc3c([C@H](C)O)cc(nc3[C@H]2O)C(=O)O[C@@H]4C)n1)C(=O)NC(=CNC(=O)c1ccc(Br)cc1)C(N)=O [RJS-08]										1 µg/mL (≈ 0.537 µM)	1 µg/mL (≈ 0.537 µM)	0.5 µg/mL (≈ 0.268 µM)	< 0.001 µg/mL	0.5 µg/mL (≈ 0.268 µM)	0.002 µg/mL (≈ 0.00107 µM)	> 64 µg/mL	0.5 µg/mL (≈ 0.268 µM)	0.5 µg/mL (≈ 0.268 µM)		Precipitation in CAMHB ([5]; at 64 μg/mL in CAMHB): distinct precipitation; Precipitation in CAMHB in LHB ([5]; at 64 μg/mL in CAMHB in LHB): distinct precipitation
C=C(NC(=O)c1csc(C2=N[C@@H]3c4csc(n4)[C@H]4NC(=O)c5csc(n5)[C@H]([C@](C)(O)[C@@H](C)O)NC(=O)C5CSC(=N5)/C(=C/C)NC(=O)[C@H]([C@@H](C)O)NC(=O)c5csc(n5)[C@]3(CC2)NC(=O)[C@H](C)NC(=O)C(=C)NC(=O)[C@H](C)NC(=O)[C@H]([C@@H](C)CC)N[C@@H]2C=Cc3c([C@H](C)O)cc(nc3[C@H]2O)C(=O)O[C@@H]4C)n1)C(=O)NC(=CNC(=O)c1ccccc1)C(N)=O [RJS-02]	2 µg/mL (≈ 1.12 µM)	1 µg/mL (≈ 0.561 µM)	1 µg/mL (≈ 0.561 µM)	0.008 µg/mL (≈ 0.00448 µM)	0.5 µg/mL (≈ 0.28 µM)	0.002 µg/mL (≈ 0.00112 µM)	> 64 µg/mL	0.5 µg/mL (≈ 0.28 µM)	1 µg/mL (≈ 0.561 µM)											solubility at 24 h [4]: < 1 µg/mL
